Molecules are shown by their SMILES. Where a name gives a salt, the structure may show the parent alone.

This assay has as its system calpain. In words: inhibition of calpain in vitro, synthetic fluorogenic substrates (Sasaki et al.). It is filed as biochemical. The settings on record: percent decrease in rate of substrate hydrolysis. Here is the method: The assays were performed using synthetic fluorogenic substrates. Inhibition of enzyme activity was calculated on the percent decease in the rate of substrate hydrolysis in the presence of inhibitor relative to the rate in its absence. IC50 s(nM) were calculated.

In turn, `O=C[C@H](Cc1ccccc1)NC(=O)c1cc(-c2ccccc2)nc2ccccc12` [Example 1, (S)-N-(1-formyl-2-phenylethyl)-2-phenyl-4-quinolinecarboxamide] displayed an IC50 of 65 nM.

Turning to `O=C[C@H](Cc1ccccc1)NC(=O)c1cc(-c2ccc(Cl)cc2)nc2ccccc12` [Example 2, (S)-2-(4-Chlorophenyl)-N-(1-formyl-2-phenylethyl)-4-quinolinecarboxamide], the concentration for half-maximal inhibition (IC50) was determined as 66 nM.

Regarding `O=C[C@H](Cc1ccccc1)NC(=O)c1cc(-c2ccc(-c3ccccc3)cc2)nc2ccccc12` [Example 3, (S)-2-[1.1'-Biphenyl]-4-yl-N-(1-formyl-2-phenylethyl)-4-quinolinecarboxamide], the IC50 was 20 nM.

`O=C[C@H](Cc1ccccc1)NC(=O)c1cc(C23CC4CC(CC(C4)C2)C3)nc2ccccc12` [Example 4, (S)-2-(1-Adamantyl)-N-(1-formyl-2-phenylethyl)-4-quinolinecarboxamide] returned an IC50 of 123 nM.

Take `O=C[C@H](Cc1ccccc1)NC(=O)c1cc(-c2ccc(Oc3ccccc3)cc2)nc2ccccc12` [Example 5, (S)-N-(1-Formyl-2-phenylethyl)-2-(4-phenoxyphenyl)-4-quinolinecarboxamide]: the IC50 stood at 32 nM.

For the molecule `O=C[C@H](Cc1ccccc1)NC(=O)c1cc(-c2ccccc2-c2ccccc2)nc2ccccc12` [Example 6, (S)-2-[1,1'-Biphenyl]-2-yl-N-(1-formyl-2-phenylethyl)-4-quinolinecarboxamide], the IC50 was found to be 19 nM.

For the molecule `O=C[C@H](Cc1ccccc1)NC(=O)c1cc(N2CCN(c3ccccc3)CC2)nc2ccccc12` [Example 8, (S)-N-(1-Formyl-2-phenylethyl)-2-(4-phenyl-1-piperazinyl)-4-quinolinecarboxamide], the IC50 was 38 nM.

`O=C[C@H](Cc1ccccc1)NC(=O)c1cc(-c2ccc(-c3cccnc3)cc2)nc2ccccc12` [Example 9, (S)-N-(1-Formyl-2-phenylethyl)-2-[4-(3-pyridinyl)phenyl]-4-quinolinecarboxamide] returned a half-maximal inhibitory concentration (IC50) of 46 nM.

The molecule `O=C[C@H](CCCCNS(=O)(=O)c1ccccc1)NC(=O)c1cc(-c2ccccc2)nc2ccccc12` [Example 10, (S)-N-[1-Formyl-5-[(phenylsulfonyl)amino]pentyl]-2-phenyl-4-quinolinecarboxamide] yielded an IC50 of 42 nM.

Regarding `O=C[C@H](CCCCNC(=O)OCc1ccncc1)NC(=O)c1cc(-c2ccccc2)nc2ccccc12` [Example 11, (S)-N-(1-Formyl-5-[(4-pyridylmethoxy)carbonylamino]pentyl]-2-phenyl-4-quinolinecarboxamide dihydrochloride salt], the IC50 worked out at 160 nM.

`O=C[C@H](Cc1ccccc1)NC(=O)c1cc(C#Cc2ccccc2)nc2ccccc12` [Example 12, (S)-N-(1-formyl-2-phenylethyl)-2-(phenylethynyl)-4-quinolinecarboxamide]: the IC50 amounted to 12 nM.

On to `CCCCNC(=O)C(=O)[C@H](Cc1ccccc1)NC(=O)c1cc(C#Cc2ccccc2)nc2ccccc12` [Example 13, N-[3-(n-butylamino)-2,3-dioxo-1-(phenylmethyl)]-2-(phenylethynyl)-4-quinolinecarboxamide], for which the IC50 worked out at 77 nM.

Usually IC50 stands for the concentration needed to halve the response being measured. Lower therefore signals higher potency.

For the origin of these results see US6100267A, “Quinoline- and naphthalenecarboxamides, pharmaceutical compositions and methods of inhibiting calpain” (SmithKline Beecham Corporation, priority 1999, dated 2000).
